Data as given in US20030130249A1, “Therapeutic use of estrogen receptor (ER)beta-selective agonists for triggering somatotropic, organotropic and anticatabolic effects (somatotropic therapy)” (Schering AG, priority 2001, published 2003).

How the values were obtained:
Type in all cases: in vivo, rat
[1] = test system: uterus of adult rats that have undergone ovariectomies; experiment: Uterotropic action in adult ovariectomized rats (FIG. 1); details: for dose giving increase in uterus weight ("standard" estrogenic activity): treatment day 1-day 3, autopsy day 4
Protocol: The substances that are to be used according to the invention have very little action in terms of “standard estrogens.” Corresponding estrogenic properties can be examined in the rats that have undergone ovariectomy. In the case of parenteral administration, 17β-estradiol even at a dose of 0.1 μg results in an increase in uterus weight. […] These substances have a correspondingly small action on the parameters of hepatic estrogeneity, for example the increase of the angiotensinogen in the blood. To examine the action of the ERβ-selective agonists in the context according to the invention, their estrogenic action on the genital tract, liver functions, somatotropic factors and on the secretion of gonadotropins was examined in comparison to estradiol in adult rats that have undergone ovariectomies. Determination of the uterotropic action of an ERα- or ERβ-selective agonist (agon) in comparison to estradnol (E2) Study of adult rats that have undergone ovariectomies 14 days after the ovariectomies, treatment day 1-day 3, autopsy day 4, subcutaneous administration in 0.2 ml of vehicle.

[2] = test system: gonads of male and female, sexually immature rats; experiment: Effects on gonads and prostate of sexually immature rats (FIG. 3)
Protocol: ERβ-selective properties can be studied in the case of female and male rats that are not sexually mature. […] In the case of a parenteral dose of 1 μg/animal/day, estradiol results in a complete inhibition of testicular growth. […] The action on the somatotropic functions, gonad functions and the genital tract was studied in infant, gonad-intact, male and female rats. Effects of ERβ-agon or ERβ-selective agonists (agon) (E2) on gonads of male and female, sexually immature rats in comparison to estradiol. Treatment of the young animals after weaning over 7 days (day 1-day 7, autopsy day 8, subcutaneous injection).

[3] = test system: IGF-I in the plasma from sexually immature rats with intact ovaries; experiment: IGF-I in the plasma of sexually immature rats (FIG. 4); details: 7 days subcutaneous, two tests with different dose ranges
From the text: (§1) Effects of ERα- or ERβ-selective agonists (agon) on IGF-I in the plasma from sexually immature rats with intact ovaries in comparison to estradiol (E2). Treatment of the young animals after weaning over 7 days (day 1-day 7, autopsy day 8; subcutaneous injection) in two tests with different dose ranges.

[4] = test system: cholesterol fractions in the plasma from sexually immature rats with intact ovaries; experiment: Cholesterol fractions in the plasma of sexually immature rats (FIG. 5); details: 7 days subcutaneous
From the text: as §1, with “the cholesterol fractions” for “IGF-I”, “8,” for “8;”

[5] = test system: adrenal glands and thymus of sexually immature rats with intact ovaries; experiment: Organ weights of adrenal glands and thymus of sexually immature rats (FIG. 6); details: 7 days subcutaneous
From the text: Effects of ERα- or ERβ-selective agonists (agon) on the development of the organ weights of the adrenal glands and the thymus of sexually immature rats with intact ovaries in comparison to estradiol (E2). Treatment of young animals after weaning over 7 days (day 1-day, 7, autopsy day 8, subcutaneous injection).

[6] = test system: body growth of sexually immature rats whose ovaries are intact; experiment: Body growth of sexually immature rats (FIG. 7); details: immature rats with intact ovaries, 7 days subcutaneous
From the text: Effects of ERα- or ERβ-selective agonists (agon) on the body growth of sexually immature rats whose ovaries are intact in comparison to estradiol (E2). Treatment of the young animals after weaning over 7 days (day 1-day 7, autopsy day 8, subcutaneous injection) in two tests with different dose ranges.

[7] = test system: uterus and vagina of ovary-intact, sexually immature rats; experiment: Effects on uterus and vagina in ovary-intact, sexually immature rats (FIG. 2); details: 7 days subcutaneous
From the text: The action on the somatotropic functions, gonad functions and the genital tract was studied in infant, gonad-intact, male and female rats. Effects of ERβ-agon or ERβ-selective agonists (agon) (E2) on the uterus and vagina in ovary-intact, sexually immature rats in comparison to estradiol. Treatment of the young animals after weaning over 7 days (day 1-day 7, autopsy day 8, subcutaneous injection) in two tests with different dose ranges.

[8] = Plasma levels after one-time oral or subcutaneous administration to ovariectomized rats, RIA (FIG. 8); details: one-time oral 1.0 mg or subcutaneous graduated dosages
Protocol: Plasma levels of the ERβ-selective agonist after a one-time oral or parenteral (subcutaneous injection) administration to ovariectomized rats, determinations 0.5; 1; 3; 6; 24 hours after oral administration of 1.0 mg (left) or 1; 2; 4; 6; 24 hours after subcutaneous administration of graduated dosages. Immunological determination by means of LCMS-validated Radio Immuno Assay (RIA).

C[C@]12CC[C@@H]3c4ccc(O)cc4CC[C@H]3[C@@H]1CC[C@@H]2O [E2, estradiol, reference compound]
dose giving increase in uterus weight ("standard" estrogenic activity) ([1]; subcutaneous): 0.1 µg | dose giving complete inhibition of testicular growth ([2]; parenteral): 1 μg/animal/day

C[C@]12CC[C@@H]3c4ccc(O)cc4CC[C@H]3[C@@H]1C[C@H]1OC(=O)C[C@]12O [ERα-agon, 3,17β-dihydroxy-19-nor-17α-pregna-1,3,5(10)-triene-21,16α-lactone, reference compound]
induction of uterus growth ([1]; subcutaneous, compared with ERβ-agon): induce uterus growth in the case of much lower dosage than the ERβ-agon | IGF-I in the plasma [3]: No comparable effects | HDL-cholesterol fraction in the plasma at high doses ([4]; high doses): drop the HDL-cholesterol fraction | total cholesterol in the plasma at high doses ([4]; high doses): drop the HDL-cholesterol fraction and the total cholesterol | adrenal gland weight [5]: less pronounced positive effects | thymus weight [5]: less pronounced positive effects | thymus weight at higher dosages ([5]; higher dosages): reduction of the thymus weight | body growth (weight increase) at higher dosages ([6]; higher dosages): considerable reduction of the weight increase

C=C[C@@]12CCc3cc(O)ccc3[C@H]1CC[C@@]1(C)[C@H]2CC[C@@H]1O [ERβ-agon, 8β-vinyl-1,3,5(10)-estratriene-3,17β-diol]
dose relative to estradiol for comparable uterotropic effect ([1]; parenteral, versus 0.1 μg of E2): 1000 fold | dose giving increase in uterus weight ("standard" estrogenic activity) ([1]; subcutaneous): 100 µg | weight development of the uterus and vagina ([7]; autopsy day 8): considerable effects on the weight development of the uterus and vagina in extremely low dosages | effects on uterus and vagina weight compared with ERα-agon and E2 ([7]; lowest tested dose): exceed those of ERα-agon, and E2 is statistically significant | growth of the prostate ([2]; 7 days subcutaneous): acceleration of the growth of the prostate | testicular growth ([2]; 7 days subcutaneous, autopsy day 8): stimulates testicular growth beyond the normal size, which is statistically significant | testicular growth at high doses ([2]; high doses, 7 days subcutaneous): inhibition of the testicular growth | IGF-I in the plasma [3]: Statistically significant increase of the IGF-I | HDL-cholesterol fraction in the plasma ([4]; broad dose range): increase of the HDL-cholesterol fraction | total cholesterol in the plasma ([4]; broad dose range): elevated plasma levels of the total cholesterol | adrenal gland weight [5]: increase of adrenal gland weight | thymus weight [5]: increase of adrenal gland weight and thymus weight | body growth ([6]; two tests with different dose ranges): accelerated growth of the animals via a broad dose range | oral bioavailability (plasma levels) [8]: orally readily bioavailable
